Assay results reported in patent US10231980B2, “Cortexolone 17alpha-benzoate for use in the treatment of tumours” (COSMO TECHNOLOGIES LTD., priority 2014, dated 2019).
Where two headings read alike, the source gives them in different places.

How the values were obtained:
HT29 = experiment: MTT colorimetric assay on epithelial intestinal cancer cells; assay type: cell-based; details: for IC50: Homo sapiens, HT-29, HT29
Experimental: The experiment was performed to test and define anticancer activity in vitro of Cortexolone 17α-benzoate and cortexolone 17α-valerate, 21-propionate on cell lines representatives of epithelial intestinal tumours, namely HT29. The experiment method consisted in: • 1. Monolayer HT-29 cells were plated in: 96-wells plates at the density of 2×10^4 cells/mL. The cells plated were kept at 37° C. in 5% CO2 and left to attach for 24 h. • 2. […] After 72 h of treatment, the MTT colorimetric assay was performed.

LNCaP = experiment: ATP-dependent cell viability assay (Cell Titer Glo), Example 12; details: for IC50: Homo sapiens, LNCaP
Source text: (§1) Data shown in Table I were fitted through sigmoidal dose response curves and analyzed using Prizm statistical.

MiaPaca2 = experiment: as above; details: human, 3 days
Source text: as §1

PC3 = experiment: as above; details: for IC50: Homo sapiens
Source text: as §1

Panc1 = experiment: as above; details: human, 3 days
Source text: as §1

MCF7 = experiment: In vitro proliferation / cytotoxic assay on breast cancer cells (Examples 14, 25); details: for effect on viability, in words: MCF7
Experimental: as §1
(§2) For the cytotoxic assay, cells were seeded in 96-well flat bottom culture plates in media containing charcoal stripped serum. After 24 hours, test compounds were added to the cells. DMSO was used as the vehicle negative control and RU486 as the positive control. After 72 hour incubation, cells were harvested and lysed to determine cell viability using the Cell Titer Glow assay.

[1] = system: caspases 8, 9, 3/7 in MiaPaca2 cells; experiment: Caspase 8, 9 and 3/7 activity; assay type: cell-based
Experimental: To better analyze the phenomenon, the enzymatic activity of Caspase 8 (initiator caspase for Extrinsic Pathway) and Caspase 9 (initiator caspase for Intrinsic Pathway) and of Caspases 3 and 7 (effector caspases) were measured.
Gemcitabine (a known pancreatic cancer chemotherapeutic agent) and DMSO were used as positive and negative controls, respectively. There were three incubation time points: 8 hours, 24 hours, and 48 hours. After each time point, cells were lysed in multiplex buffer containing the caspase 3/7 substrate combined with either caspase 8 or caspase 9 reagents, which contain stable luciferase in proprietary buffers. The lysates were transferred to white opaque 96-well plates before measuring luminescence on a Tecan Safire instrument. Parallel plates treated identically were used to determine cell viability. All caspase activities were corrected for the number of viable cells.

7 cancer cell lines = experiment: Therapeutic index over a panel of cancer cell lines; assay type: cell-based; details: average over the cancer cell lines of Table VII
Experimental: The compound toxicity was determined as follow:
Therapeutic Index=Safety/Potency=IC50 stimulated PBMC/IC50 cancer cell

stimulated PBMC = experiment: IC50 on stimulated (actively dividing) PBMC; assay type: cell-based, human; details: PBMC Stim; Table IV
MDA-MB-231 = experiment: In vitro proliferation / cytotoxic assay on breast cancer cells (Examples 14, 25); assay type: cell-based; details: Homo sapiens; MDA-MB-231; at 100 μM; read-out: maximum inhibition of viability
Experimental: as §1, §2

## CCCCC(=O)O[C@]1(C(=O)CO)CC[C@H]2[C@@H]3CCC4=CC(=O)CC[C@]4(C)[C@H]3CC[C@@]21C [CB-03-05, cortexolone 17α-valerate]
HT29; Table III, read-out: in vitro proliferation IC50
  IC50: 35 µM
HT29; Table IV, read-out: In vitro proliferation IC50
  IC50: 35 µM
HT29; human, 72 h
  Therapeutic Index = IC50 resting PBMC/IC50 cancer cell: 4
  Therapeutic Index = IC50 stimulated PBMC/IC50 cancer cell: 4
LNCaP
  IC50: 32 µM
LNCaP; 72 h
  IC50: 32 µM
LNCaP; read-out: In vitro proliferation IC50
  IC50: 32 µM
LNCaP; read-out: in vitro proliferation IC50
  IC50: 32 µM
LNCaP; human, 3 days
  Therapeutic Index = IC50 resting PBMC/IC50 cancer cell: 4
  Therapeutic Index = IC50 stimulated PBMC/IC50 cancer cell: 4
MiaPaca2
  Therapeutic Index = IC50 resting PBMC/IC50 cancer cell: 2
  Therapeutic Index = IC50 stimulated PBMC/IC50 cancer cell: 2
PC3; PC-3, 72 h, PC3, Tables I and II, titrated 3 uM to 200 uM, 3 days
  IC50: 170 µM
PC3; PC-3, read-out: In vitro proliferation IC50, PC3, Table IV
  IC50: 170 µM
PC3; PC-3, read-out: in vitro proliferation IC50, PC3, Table III
  IC50: 170 µM
PC3; human, 3 days
  Therapeutic Index = IC50 resting PBMC/IC50 cancer cell: 1
  Therapeutic Index = IC50 stimulated PBMC/IC50 cancer cell: 1
Panc1
  Therapeutic Index = IC50 resting PBMC/IC50 cancer cell: 2
  Therapeutic Index = IC50 stimulated PBMC/IC50 cancer cell: 2
MCF7
  effect on viability, in words: only active in MCF7
MCF7; human, 3 days
  Therapeutic Index = IC50 resting PBMC/IC50 cancer cell: 3
  Therapeutic Index = IC50 stimulated PBMC/IC50 cancer cell: 3
[1]
  profile for caspase activation: does not show a good profile for caspase activation
7 cancer cell lines
  Therapeutic Index = IC50 stimulated PBMC/IC50 cancer cell, AVERAGE: 3
Stimulated PBMC
  Therapeutic Index = IC50 resting PBMC/IC50 cancer cell: 1

## CC#C[C@]1(O)CC[C@H]2[C@@H]3CCC4=CC(=O)CCC4=C3[C@@H](c3ccc(N(C)C)cc3)C[C@@]21C [RU486, Mifepristone, reference compound]
MCF7
  effect on viability, in words: does not affect
MCF7; MCF7 (ER+PR+GR+/−), 72 hour, Table VI
  IC50: Not active
MDA-MB-231
  cytotoxicity at 100 µM: 25%
